B1: wild-type IdmH (full-length putative indane cyclase from the indanomycin NRPS/PKS pathway) (enzyme, UniProt C5HV10 1-145, looked up)
chain: MAHQPSDTIAGLYEAFNSGDLETLRELIAPDAVIHLPGTAGDAEHPPGTPRDREGWLGVWQFTQAFFPDMTATVQDIVQTGDLVATRCVARGTHSIEFMGVPPTGRPFEMTMLNMSRVRDGRIVEHWTISDNVTMLAQLGVKASL
notes: IdmH, Streptomyces antibioticus NRRL 8167, full-length idmH gene (ACN69984.1) amplified from genomic DNA; 145 amino acids as printed; Cloned in pET-28a at NdeI; residues of the thrombin site may remain at the N-terminus after cleavage (surmised); also called full-length IdmH; native IdmH; source: E. coli BL21(DE3), purified (HisTrap, thrombin cleavage, HiTrap Q, Superdex 75 SEC); not shown: His6, …

What was measured:
IdmH = target: T1, IdmH (Streptomyces antibioticus, UniProt C5HV10); experiment: 1H-15N HSQC-TROSY chemical shift perturbation titration; format: binding; conditions: 0.2 mM 15N-labelled IdmH, 0-200 uM indanomycin; 20 mM Tris pH 7.3, 50 mM NaCl, 1 mM DTT, 25 C; proposed active-site pocket; proposed (not shown) reaction product
T1 construct: full length (145 residues), N-terminal His6 tag with thrombin site (pET-28a), E. coli BL21(DE3); homodimer

[1] = target: the molecule itself; experiment: SEC + other: LC/MS; oligomeric state of purified, tag-cleaved wild-type IdmH; conditions of this analysis not told in the text (Supplementary Fig. S4)

| Molecule | 1H-15N HSQC-TROSY chemical shift perturbation titration (IdmH) | stoichiometry N [1] |
| --- | --- | --- |
| CC/C(=C\C=C\[C@@H]1C=C[C@@H]2[C@@H](CC)CC[C@H]2[C@@H]1C(=O)c1ccc[nH]1)[C@@H]1O[C@@H]([C@@H](C)C(=O)O)CC[C@@H]1C [compound 1, indanomycin] | indanomycin can bind to IdmH in the proposed active site | – |
| B1 | – | 2 |

— PMC6830212, “Crystal structure of the putative cyclase IdmH from the indanomycin nonribosomal peptide synthase/polyketide synthase” (IUCrJ, 2019)
